Measurements taken from US10023519B2, “Cyclobutane containing carboxylic acid GPR120 modulators” (BRISTOL-MYERS SQUIBB COMPANY, priority 2014, dated 2018).

Target: human GPR120 (Homo sapiens (Human), UniProt Q5NUL3)
Test: GPR120 pERK AlphaScreen SureFire Assay (human)
Format: cell-based
Conditions: CHO cells stably transfected with short form of human GPR120
Source text: GPR120 activity was monitored by measuring phosphorylation of ERK (pERK), since G protein receptors are known to activate the ERK signaling cascade either directly and/or through recruitment of arrestin that serves as a scaffold for downstream signaling events.
GPR120 pERK AlphaScreen SureFire Assay
The human and mouse GPR120-mediated intracellular phosphorylated ERK assays were established using CHOA12 cells stably transfected with the short form of human or mouse GPR120 receptor. […] Cells were cryo preserved at a concentration of 2×10^7 cells/mL, in 90% Charcoal/Dextran FBS and 10% DMSO, and frozen in liquid nitrogen at a low passage number.
The flasks were placed in a tissue culture incubator overnight (37° C., 5% CO2). […] The next day, cells were serum starved in 30 μL of F-12 media without any serum or antibiotics for 2 hours at 37° C.
Cells were then stimulated with 50 nL of compound dilutions using ECHO liquid handler for 7 minutes at 37° C.
(§1) The lysis buffer was diluted 5-fold with water before use. […] The SureFire assay reagent mix was prepared by mixing 60 parts Reaction Buffer, 10 parts Activation Buffer, 1 part Donor Beads, 1 part Acceptor Beads (Perkin Elmer Cat. #TGRES10K). 3.5 μL/well of this reagent mix was manually added to the proxiplate with a multichannel pipettor. Plates were spun down at 1000 rpm for 2 minutes, followed by light-protected incubation at room temperature for 2 hours. The plates were read on the Alpha-technology compatible Envision multilabel plate reader using AlphaScreen protocol according to manufacturer's specifications. The agonist effect of compounds was expressed as 100× (average sample−average blank)/(average total−average blank) where sample is the luminescence activity in the presence of test compound, blank is equal to the luminescence activity in the presence of DMSO control and the total is signal induced by 50 μM linolenic acid as reference compound. Activation data for the test compound over a range of concentrations was plotted as percentage activation of the test compound (100%=maximum response). After correcting for background, EC50 values were determined.
The human and mouse GPR120-mediated intracellular phosphorylated ERK assays were also established using CHO-K1 cells stably transfected with the short form of human or mouse GPR120 receptor. […] Cells were cryo preserved at a concentration of 3×10^6 cells/mL, in 70% F-12, 20% Charcoal/Dextran FBS and 10% DMSO, and frozen in liquid nitrogen at a low passage number.
The flasks were placed in a tissue culture incubator overnight (37° C., 5% CO2).
Cells were then stimulated with 40 nL of compound dilutions using ECHO liquid handler for 7 minutes at 37° C.
as §1, with “compound.” for “compound. Activation data for the test compound over a range of concentrations was plotted as percentage activation of the test compound (100%=maximum response). After correcting for background, EC50 values were determined.”
Activation data for the test compound over a range of concentrations was plotted as percentage activation of the test compound (100%=maximum response). After correcting for background, EC50 values were determined.

Chain of human GPR120 (Q5NUL3 whole entry): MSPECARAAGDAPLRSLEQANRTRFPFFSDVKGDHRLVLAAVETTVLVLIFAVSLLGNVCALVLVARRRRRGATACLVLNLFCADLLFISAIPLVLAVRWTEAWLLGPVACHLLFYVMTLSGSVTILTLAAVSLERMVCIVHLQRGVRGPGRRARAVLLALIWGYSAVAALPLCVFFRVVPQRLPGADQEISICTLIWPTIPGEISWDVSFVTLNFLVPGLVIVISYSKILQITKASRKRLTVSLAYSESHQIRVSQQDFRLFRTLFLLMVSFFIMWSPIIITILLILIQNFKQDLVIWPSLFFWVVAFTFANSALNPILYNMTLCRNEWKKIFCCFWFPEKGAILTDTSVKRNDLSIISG

Row | Molecule | EC50 [nM]
1 | O=C(O)CO[C@H]1C[C@@H](c2ccc(-c3cccc(C(=O)c4ccccc4)c3)cc2)C1 [Example 14, Cis-2-(3-(3′-benzoyl-[1,1′-biphenyl]-4-yl)cyclobutoxy) acetic acid] | 830
2 | Cis-2-(3-(2′,3′-difluoro- 5′-(3- fluorophenoxy)-[1,1′- biphenyl]-4-yl)cyclobutoxy) acetic acid [Example 37] | 590
3 | O=C(O)CO[C@H]1C[C@@H](c2ccc(-c3cc(OC4CCCCC4)ccc3F)cc2)C1 [Example 33, Cis-2-(3-(5′-(cyclohexyloxy)-2′-fluoro-[1,1′-biphenyl]-4-yl)cyclobutoxy)acetic acid] | 760
4 | O=C(O)CCC[C@H]1C[C@@H](OCc2cccc(Oc3ccccc3)c2)C1 [Example 53, 4-(Cis-3-(3-phenoxybenzyloxy)cyclobutyl)butanoic acid] | 430
5 | C[C@]1(CCCOCC(=O)O)C[C@@H](c2cccc(Oc3ccccc3)c2)C1 [Example 60, 2-(3-(Cis-1-methyl-3-(3-phenoxyphenyl)cyclobutyl)propoxy)acetic acid] | 740
6 | O=C(O)CO[C@H]1C[C@@H](c2ccc(-c3cc(OC4CCCC4)ccc3F)cc2)C1 [Example 3, Cis-2-(3-(5′-(cyclopentyloxy)-2′-fluoro-[1,1′-biphenyl]-4-yl)cyclobutoxy)acetic acid] | 410
7 | O=C(O)COCCC[C@H]1C[C@H](c2cccc(Oc3ccccc3)c2)C1 [Example 56, 2-(3-(Trans-3-(3-phenoxyphenyl)cyclobutyl)propoxy)acetic acid] | 170
8 | O=C(O)CO[C@H]1C[C@@H](c2ccc(-c3cc(Oc4cccc(F)c4)ccc3F)cc2)C1 [Example 32, Cis-2-(3-(2′-fluoro-5′-(3-fluorophenoxy)-[1,1′-biphenyl]-4-yl)cyclobutoxy)acetic acid] | 230
9 | Cc1ccc(Oc2ccc(F)c(-c3ccc([C@H]4C[C@@H](OCC(=O)O)C4)cc3)c2)cn1 [Example 20, Cis-2-(3-(2′-fluoro-5′-((6-methylpyridin-3-yl)oxy)-[1,1′-biphenyl]-4-yl)cyclobutoxy) acetic acid] | 270
10 | CC(C)Oc1ccc(F)c(-c2ccc([C@H]3C[C@H](CC(=O)O)C3)cc2)c1 [Example 44, 2-(Trans-3-(2′-fluoro-5′-isopropoxy-[1,1′-biphenyl]-4-yl)cyclobutyl)acetic acid] | 140
11 | Cc1ncc(Oc2ccc(F)c(-c3ccc([C@H]4C[C@@H](OCC(=O)O)C4)cc3)c2)s1 [Example 27, Cis-2-(3-(2′-fluoro-5′-((2-methylthiazol-5-yl)oxy)-[1,1′-biphenyl]-4-yl)cyclobutoxy)acetic acid] | 420
12 | Cc1nc(-c2ccccc2)c(-c2ccc([C@H]3C[C@@H](OCC(=O)O)C3)cc2)s1 [Example 23, Cis-2-(3-(4-(2-Methyl-4-phenylthiazol-5-yl)phenyl)cyclobutoxy)acetic acid] | 3460
13 | O=C(O)CO[C@H]1C[C@@H](c2ccc(-c3cccc(Cc4ccccc4)c3)cc2)C1 [Example 9, Cis-2-(3-(3′-benzyl-[1,1′-biphenyl]-4-yl)cyclobutoxy)acetic acid] | 1590
14 | CC(C)Oc1cc(F)cc(-c2ccc([C@H]3C[C@@H](OCC(=O)O)C3)cc2)c1 [Example 18, Cis-2-(3-(3′-fluoro-5′-isopropoxy-[1,1′-biphenyl]-4-yl)cyclobutoxy) acetic acid] | 3130
15 | CC(C)Oc1ccc(F)c(-c2ccc([C@H]3C[C@@H](CC(=O)O)C3)cc2)c1 [Example 45, 2-(Cis-3-(2′-fluoro-5′-isopropoxy-[1,1′-biphenyl]-4-yl)cyclobutyl)acetic acid] | 120
16 | O=C(O)CO[C@H]1C[C@@H](c2ccc(-c3cc(Oc4cccc(F)c4)cnc3Cl)cc2)C1 [Example 22, Cis-2-(3-(4-(2-Chloro-5-(3-fluorophenoxy)pyridin-3-yl)phenyl)cyclobutoxy)acetic acid] | 360
17 | CC(C)Oc1cccc(-c2ccc([C@H]3C[C@@H](OCC(=O)O)C3)cc2)c1 [Example 7, Cis-2-(3-(3′-isopropoxy-[1,1′-biphenyl]-4-yl)cyclobutoxy) acetic acid] | 590
18 | O=C(O)[C@H]1C[C@H](Oc2ccc(-c3cc(Oc4ccccc4)ccc3F)cc2)C1 [Example 64, Trans-3-((2′-fluoro-5′-phenoxy-[1,1′-biphenyl]-4-yl)oxy)cyclobutanecarboxylic acid] | 440
19 | O=C(O)COCCC1CC(OCc2cccc(Oc3ccccc3)c2)C1 (stereo not drawn) [Example 57, 2-(2-(3-(3-Phenoxybenzyloxy)cyclobutyl)ethoxy)acetic acid] | 700
20 | O=C(O)CO[C@H]1C[C@@H](c2ccc(-c3cc(OC(F)(F)F)ccc3F)cc2)C1 [Example 17, Cis-2-(3-(2′-fluoro-5′-(trifluoromethoxy)-[1,1′-biphenyl]-4-yl)cyclobutoxy)acetic acid] | 550
21 | CC(C)Oc1ccc(F)c(-c2ccc(C[C@H]3C[C@@H](CC(=O)O)C3)cc2)c1 [Example 51, 2-(Cis-3-((2′-fluoro-5′-isopropoxy-[1,1′-biphenyl]-4-yl)methyl)cyclobutyl)acetic acid] | 560
22 | O=C(O)CCOC[C@H]1C[C@@H](OCc2cccc(Oc3ccccc3)c2)C1 [Example 55, 3-((Cis-3-(3-phenoxybenzyloxy)cyclobutyl)methoxy)propanoic acid] | 470
23 | COc1ccc(OC(F)(F)F)cc1-c1ccc([C@H]2C[C@@H](OCC(=O)O)C2)cc1 [Example 16, Cis-2-(3-(2′-methoxy-5′-(trifluoromethoxy)-[1,1′-biphenyl]-4-yl)cyclobutoxy)acetic acid] | 480
24 | O=C(O)[C@H]1C[C@@H](Oc2ccc(-c3cc(Oc4ccccc4)ccc3F)cc2)C1 [Example 65, Cis-3-((2′-fluoro-5′-phenoxy-[1,1′-biphenyl]-4-yl)oxy)cyclobutanecarboxylic acid] | 2270
25 | O=C(O)CO[C@H]1C[C@H](c2ccc(-c3cc(Oc4ccccc4)ccc3F)cc2)C1 [Example 39, Trans-2-(3-(2′-fluoro-5′-phenoxy-[1,1′-biphenyl]-4-yl)cyclobutoxy)acetic acid] | 410
26 | COC1(c2cccc(Oc3ccccc3)c2)CC(CCCOCC(=O)O)C1 (stereo not drawn) [Example 68, 2-(3-(3-Methoxy-3-(3-phenoxyphenyl)cyclobutyl)propoxy)acetic acid] | 2800
27 | CC(C)Oc1ccc(F)c(-c2ccc(CC3CC(CC(=O)O)C3)cc2)c1 (stereo not drawn) [Example 50, 2-(3-((2′-Fluoro-5′-isopropoxy-[1,1′-biphenyl]-4-yl)methyl)cyclobutyl)acetic acid] | 650
28 | CC(C)Oc1ccc(F)c(-c2ccc([C@H]3C[C@@H](OCC(=O)O)C3)cc2)c1 [Example 2, Cis-2-(3-(2′-fluoro-5′-isopropoxy-[1,1′-biphenyl]-4-yl)cyclobutoxy)acetic acid] | 530
29 | CC(C)Oc1ccc(F)c(-c2ccc(C3CC(CC(=O)O)C3)cc2)c1 (stereo not drawn) [Example 43, 2-(3-(2′-Fluoro-5′-isopropoxy-[1,1′-biphenyl]-4-yl)cyclobutyl)acetic acid] | 210
30 | CC(C)Oc1ccc(F)c(-c2ccc(C=C3CC(C(=O)O)C3)cc2)c1 (stereo not drawn) [Example 47, 3-((2′-Fluoro-5′-isopropoxy-[1,1′-biphenyl]-4-yl)methylene)cyclobutanecarboxylic acid] | 460
